In patent publication US20150366890A1, “COMPOSITIONS AND METHODS FOR TREATING FUNGAL INFECTIONS” (TRUSTEES OF BOSTON UNIVERSITY, priority 2013, published 2015):

Tested on: C. albicans wildtype and DNA repair mutants
Assay: Fungicidal killing, CFU assay
Assay type: cell-based
Settings: C. albicans rad50/rad50 and rad52/rad52, 3 hours of drug exposure
Method: Overnight yeast cultures were diluted into the indicated media and grown to an OD600 of 0.2, at which point the AFs were added. Colony forming units (CFU) were measured by plating six serial dilutions onto YPD agar plates.
Overnight yeast cultures were diluted into the indicated media and grown to an OD600 of 0.2, at which point the AFs were added. Colony forming units (CFU) were measured by plating six serial dilutions onto YPD agar plates. Cells treated with MCZ were washed before serial dilution to stop growth inhibition associated with high concentrations of MCZ. CFU were counted after three days of incubation on agar plates. When indicated, thiourea (Fluka) was added 30 min prior to the addition of AFs. HPF (10 μM) (Invitrogen) and Mito Tracker (1 μM) (Invitrogen) dyes were added to PBS-washed cells at the indicated time points and incubated for 30 min prior to flow cytometry measurements, which were taken on the FACSCalibur (Becton-Dickinson). All experiments described in this section were conducted in 0.5 ml of SDC in 24-well plates incubated at 900 rpm and 37° C. for C. albicans and 30° C. and 300 rpm for S. cerevisiae. TUNEL assays were conducted as previously described (Ribeiro et al., 2006) and are described in detail in the TUNEL section of the Experimental Procedures.

## C[C@@H]1[C@H](O)[C@@H](C)/C=C/C=C/C=C/C=C/C=C/C=C/C=C/[C@H](O[C@@H]2O[C@H](C)[C@@H](O)[C@H](N)[C@@H]2O)C[C@@H]2O[C@](O)(C[C@@H](O)C[C@@H](O)[C@H](O)CC[C@@H](O)C[C@@H](O)CC(=O)O[C@H]1C)C[C@H](O)[C@H]2C(=O)O [AMB, amphotericin B]
  susceptibility of DSBR mutants compared to wildtype: particularly susceptible
